Results on 25 compounds are retold here after US12649745B2, “Amino-pyrimidine cyclo-amides” (Hoffmann-La Roche Inc., priority 2020, dated 2026).

For orientation: IC50 means the point on the concentration scale where inhibition reaches its midpoint.

The assay addresses T1, human Autotaxin (ATX) (Homo sapiens, UniProt Q13822).
T1 construct: generate a full length human ENPP2 ORF with or without a 3′-6×His tag; 6xHis (C); made in house; host or cells: FreeStyle 293-F cells (transient transfection), purified from culture supernatant
Put plainly: Human ATX enzyme inhibition assay (LPC substrate, choline oxidase/HRP/Amplex Red coupled format). The assay is classed as biochemical. The note with it: recombinant hATX 1 nM, 18:1 LPC 30 μM, fluorescence at 90 mins minus 5 mins. The procedure:
Human ATX Enzyme Inhibition Assay
To identify inhibitors of the human Autotaxin (ATX) enzyme an in-vitro biochemical profiling assay has been developed using lysophosphatidylcholine (LPC) as substrate and recombinant enzyme. ATX activity is assayed via a coupled enzyme format where choline produced from LPC hydrolysis is converted to hydrogen peroxide by choline oxidase (CO). Hydrogen peroxide is in turn used as a co-substrate by horseradish peroxidase (HRP) to oxidise Amplex Red® and generate the red-fluorescent product, Resorufin.
50 mM Tris-HCl (pH 8.0); 120 mM NaCl; 20 mM CaCl2; 5 mM KCl; 1 mM MgCl2; 0.01% Triton X-100, sterile-filtered and stored at 4° C.
50 mM Tris-HCl (pH 8.0); 150 mM NaCl
human Autotaxin (hATX): 0.97 mg/ml (9.718 μM) Molecular weight 99817. Working solution of 1.5 μM used in this assay.
100 mM 18:1 LPC dissolved in reagent dilution-buffer.
500 U/ml Choline Oxidase in reagent dilution buffer.
2540 U/ml Horseradish Peroxidase, in reagent dilution buffer (10.95 mg/ml).
20 mM Amplex Red (10-Acetyl-3,7-dihydroxy-phenoxazin) in DMSO.
Black, 384-well plate, black with clear bottom, non-treated surface.
Test compounds are received pre-diluted in DMSO as an 11-point concentration-response (0.5 mM highest concentration; 1 in 3.162 dilution). Test compounds are pre-diluted 1:1 (10 μL compound+10 μL assay buffer) in a 96-well conical bottomed plate prior to use.
ATX is diluted to 2.2 nM in assay buffer. Choline oxidase and horseradish peroxidase are diluted to 7.3 U/ml and 14.7 U/ml, respectively. 18:1 LPC and Amplex Red® are diluted to 110 μM and 183.3 μM, respectively (solution protected from light). 2.2 μL of compound pre-dilution or 50% DMSO is added to the reaction plate followed by 25 μL of ATX or assay buffer (negative control). Assay plate is mixed and incubated at room temperature for 10 mins. 15 μL of choline oxidase/horseradish peroxidase is then added. To initiate the reaction 15 μL of LPC 18:1/Amplex Red is added. Assay plate is mixed and incubated at room temperature in the dark. Fluorescence is measured at 5 mins (for background subtraction) and 90 mins.
Final Assay Concentrations:
Horse Radish Peroxidase: 4 U/ml
Fluorescence at 5-minutes is subtracted from the 90-minute end point data and normalized with respect to the positive control. IC50 values are calculated.
Results in the enzymatic ATX inhibition assay are provided for compounds of formula (I).
For `N#Cc1cc(Cl)cc2c1C[C@@H](Nc1ncc3c(n1)CN(C(CF)CF)C3=O)C2` [Example 26, (S)-6-chloro-2-((6-(1,3-difluoropropan-2-yl)-5-oxo-6,7-dihydro-5H-pyrrolo[3,4-d]pyrimidin-2-yl)amino)-2,3-dihydro-1H-indene-4-carbonitrile], the IC50 is 4 nM.

On to `CC(C)(O)CN1Cc2nc(N[C@H]3Cc4cc(Cl)cc(C#N)c4C3)ncc2C1=O` [Example 21, (S)-6-chloro-2-((6-(2-hydroxy-2-methylpropyl)-5-oxo-6,7-dihydro-5H-pyrrolo[3,4-d]pyrimidin-2-yl)amino)-2,3-dihydro-1H-indene-4-carbonitrile], for which the half-maximal inhibitory concentration (IC50) is 5 nM.

Regarding `CC(C)N1Cc2nc(N[C@H]3Cc4cc(Cl)cc(C#N)c4C3)ncc2C1=O` [Example 12, (S)-6-chloro-2-((6-isopropyl-5-oxo-6,7-dihydro-5H-pyrrolo[3,4-d]pyrimidin-2-yl)amino)-2,3-dihydro-1H-indene-4-carbonitrile], the IC50 came to 3 nM.

As to `CC(C)N1CCc2nc(N[C@H]3Cc4cc(Cl)cc(C#N)c4C3)ncc2C1=O` [Example 30, (S)-6-chloro-2-((6-isopropyl-5-oxo-5,6,7,8-tetrahydropyrido[4,3-d]pyrimidin-2-yl)amino)-2,3-dihydro-1H-indene-4-carbonitrile], the concentration for half-maximal inhibition (IC50) turned out to be 2 nM.

With `N#Cc1cc(Cl)cc2c1C[C@@H](Nc1ncc3c(n1)CN(CCF)C3=O)C2` [Example 22, (S)-6-chloro-2-((6-(2-fluoroethyl)-5-oxo-6,7-dihydro-5H-pyrrolo[3,4-d]pyrimidin-2-yl)amino)-2,3-dihydro-1H-indene-4-carbonitrile], the IC50 came out at 2 nM.

Turning to `N#Cc1cc(Cl)cc2c1C[C@@H](Nc1ncc3c(n1)CN([C@H]1C[C@H](O)C1)C3=O)C2` [Example 19], the half-inhibitory concentration (IC50) is 5 nM.

`CC1(N2Cc3nc(N[C@H]4Cc5cc(Cl)cc(C#N)c5C4)ncc3C2=O)COC1` [Example 3, (S)-6-chloro-2-((6-(3-methyloxetan-3-yl)-5-oxo-6,7-dihydro-5H-pyrrolo[3,4-d]pyrimidin-2-yl)amino)-2,3-dihydro-1H-indene-4-carbonitrile]: the IC50 is 5 nM.

In the case of `CC1(N2Cc3nc(N[C@H]4Cc5cc(Cl)cc(C#N)c5C4)ncc3C2=O)CC1` [Example 15, (S)-6-chloro-2-((6-(1-methylcyclopropyl)-5-oxo-6,7-dihydro-5H-pyrrolo[3,4-d]pyrimidin-2-yl)amino)-2,3-dihydro-1H-indene-4-carbonitrile], the IC50 is 2 nM.

For the compound `CC1(N2Cc3nc(N[C@H]4Cc5cc(Cl)cc(C#N)c5C4)ncc3C2=O)CC(F)(F)C1` [Example 6, (S)-6-chloro-2-((6-(3,3-difluoro-1-methylcyclobutyl)-5-oxo-6,7-dihydro-5H-pyrrolo[3,4-d]pyrimidin-2-yl)amino)-2,3-dihydro-1H-indene-4-carbonitrile], the concentration for half-maximal inhibition (IC50) was 4 nM.

Consider `CN1Cc2nc(N[C@H]3Cc4cc(Cl)cc(C#N)c4C3)ncc2C1=O` [Example 23, (S)-6-chloro-2-((6-methyl-5-oxo-6,7-dihydro-5H-pyrrolo[3,4-d]pyrimidin-2-yl)amino)-2,3-dihydro-1H-indene-4-carbonitrile], for which the IC50 was determined as 3 nM.

`N#Cc1cc(Cl)cc2c1C[C@@H](Nc1ncc3c(n1)CN(CC1(O)CC1)C3=O)C2` [Example 24, (S)-6-chloro-2-((6-((1-hydroxycyclopropyl)methyl)-5-oxo-6,7-dihydro-5H-pyrrolo[3,4-d]pyrimidin-2-yl)amino)-2,3-dihydro-1H-indene-4-carbonitrile]: the IC50 amounted to 9 nM.

Regarding `O=C1c2cnc(NC3Cc4ccc(Cl)cc4C3)nc2CN1C1CC2(C1)CC(F)(F)C2` (stereo not shown) [Example 4, 2-((5-chloro-2,3-dihydro-1H-inden-2-yl)amino)-6-(6,6-difluorospiro[3.3]heptan-2-yl)-6,7-dihydro-5H-pyrrolo[3,4-d]pyrimidin-5-one], the IC50 came to 42 nM.

For the compound `N#Cc1cc(Cl)cc2c1C[C@@H](Nc1ncc3c(n1)CCN(C1CCOCC1)C3=O)C2` [Example 29, (S)-6-chloro-2-((5-oxo-6-(tetrahydro-2H-pyran-4-yl)-5,6,7,8-tetrahydropyrido[4,3-d]pyrimidin-2-yl)amino)-2,3-dihydro-1H-indene-4-carbonitrile], the 50% inhibitory concentration (IC50) amounted to 4 nM.

For the compound `CC1(N2Cc3nc(NC4Cc5ccc(Cl)cc5C4)ncc3C2=O)COC1` (stereo not shown) [Example 2, 2-((5-chloro-2,3-dihydro-1H-inden-2-yl)amino)-6-(3-methyloxetan-3-yl)-6,7-dihydro-5H-pyrrolo[3,4-d]pyrimidin-5-one], the half-inhibitory concentration (IC50) worked out at 183 nM.

For the compound `CC1(CN2Cc3nc(N[C@H]4Cc5cc(Cl)cc(C#N)c5C4)ncc3C2=O)COC1` [Example 28, (S)-6-chloro-2-((6-((3-methyloxetan-3-yl)methyl)-5-oxo-6,7-dihydro-5H-pyrrolo[3,4-d]pyrimidin-2-yl)amino)-2,3-dihydro-1H-indene-4-carbonitrile], the IC50 came out at 6 nM.

Consider `N#Cc1cc(Cl)cc2c1C[C@@H](Nc1ncc3c(n1)CN(CC1CC1)C3=O)C2` [Example 18, (S)-6-chloro-2-((6-(cyclopropylmethyl)-5-oxo-6,7-dihydro-5H-pyrrolo[3,4-d]pyrimidin-2-yl)amino)-2,3-dihydro-1H-indene-4-carbonitrile], for which the IC50 amounted to 3 nM.

In the case of `N#Cc1cc(Cl)cc2c1C[C@@H](Nc1ncc3c(n1)CN(C1CC1)C3=O)C2` [Example 13, (S)-6-chloro-2-((6-cyclopropyl-5-oxo-6,7-dihydro-5H-pyrrolo[3,4-d]pyrimidin-2-yl)amino)-2,3-dihydro-1H-indene-4-carbonitrile], the IC50 is 2 nM.

For `N#Cc1cc(Cl)cc2c1C[C@@H](Nc1ncc3c(n1)CCN(C1CCOC1)C3=O)C2` (mixture of isomers) [Example 32, (S,S) and (S,R)-6-chloro-2-((5-oxo-6-(tetrahydrofuran-3-yl)-5,6,7,8-tetrahydropyrido[4,3-d]pyrimidin-2-yl)amino)-2,3-dihydro-1H-indene-4-carbonitrile], the IC50 was found to be 4 nM.

In the case of `N#Cc1cc(Cl)cc2c1C[C@@H](Nc1ncc3c(n1)CN(C1COC1)C3=O)C2` [Example 16, (S)-6-chloro-2-((6-(oxetan-3-yl)-5-oxo-6,7-dihydro-5H-pyrrolo[3,4-d]pyrimidin-2-yl)amino)-2,3-dihydro-1H-indene-4-carbonitrile], the IC50 is 4 nM.

On to `N#Cc1cc(Cl)cc2c1C[C@@H](Nc1ncc3c(n1)CN(CC(F)(F)F)C3=O)C2` [Example 10, (S)-6-chloro-2-((5-oxo-6-(2,2,2-trifluoroethyl)-6,7-dihydro-5H-pyrrolo[3,4-d]pyrimidin-2-yl)amino)-2,3-dihydro-1H-indene-4-carbonitrile], for which the IC50 is 2 nM.

Take `N#Cc1cc(Cl)cc2c1C[C@@H](Nc1ncc3c(n1)CN(CC1COC1)C3=O)C2` [Example 14, (S)-6-chloro-2-((6-(oxetan-3-ylmethyl)-5-oxo-6,7-dihydro-5H-pyrrolo[3,4-d]pyrimidin-2-yl)amino)-2,3-dihydro-1H-indene-4-carbonitrile]: the IC50 was 3 nM.

Take `N#Cc1cc(Cl)cc2c1C[C@@H](Nc1ncc3c(n1)CN(C1CCOC1)C3=O)C2` (mixture of isomers) [Example 11, (S,S) and (S,R)-6-chloro-2-((5-oxo-6-(tetrahydrofuran-3-yl)-6,7-dihydro-5H-pyrrolo[3,4-d]pyrimidin-2-yl)amino)-2,3-dihydro-1H-indene-4-carbonitrile]: the IC50 amounted to 6 nM.

`CCN1Cc2nc(N[C@H]3Cc4cc(Cl)cc(C#N)c4C3)ncc2C1=O` [Example 33, (S)-6-chloro-2-((6-ethyl-5-oxo-6,7-dihydro-5H-pyrrolo[3,4-d]pyrimidin-2-yl)amino)-2,3-dihydro-1H-indene-4-carbonitrile]: the IC50 worked out at 2 nM.

Consider `N#Cc1cc(Cl)cc2c1C[C@@H](Nc1ncc3c(n1)CN(C1CC(F)(F)C1)C3=O)C2` [Example 8, (S)-6-chloro-2-((6-(3,3-difluorocyclobutyl)-5-oxo-6,7-dihydro-5H-pyrrolo[3,4-d]pyrimidin-2-yl)amino)-2,3-dihydro-1H-indene-4-carbonitrile], for which the 50% inhibitory concentration (IC50) was determined as 3 nM.

Take `COCCN1Cc2nc(N[C@H]3Cc4cc(Cl)cc(C#N)c4C3)ncc2C1=O` [Example 20, (S)-6-chloro-2-((6-(2-methoxyethyl)-5-oxo-6,7-dihydro-5H-pyrrolo[3,4-d]pyrimidin-2-yl)amino)-2,3-dihydro-1H-indene-4-carbonitrile]: the 50% inhibitory concentration (IC50) came to 5 nM.
